Assay results as given in patent US10213415B2, “Compounds as opioid receptor modulators” (JANSSEN PHARMACEUTICA NV, priority 2004, dated 2019).
Values joined by “and” are separate entries in the source; they are usually repeats but may differ in a detail not shown here. Identical values can stand only once.

Legend:
[1] = target: T1, mu opioid receptor (CHO-hMOR cell membranes) (Homo sapiens, UniProt P35372); assay: Mu Opioid Receptor Functional Assay: [35S]GTPγS Binding in CHO-hMOR Cell Membranes, Versions 1 and 2; assay type: biochemical; details: for MOR GTP binding assay_v2 (% I): version 2, % inhibition of agonist-stimulated GTPγS binding; for EC50: version 2, read-out: MOR GTP binding assay v2 EC50; for MOR GTP binding assay_v1 (% I): version 1, % inhibition of agonist-stimulated GTPγS binding; for MOR GTP assay_v1 % of Basal: version 1, basal binding = 100%
T1 construct: purchased Receptor Biology, Inc. (Baltimore, Md.); host or cells: CHO cells (recombinant expression)
T1 sequence (P35372 whole entry): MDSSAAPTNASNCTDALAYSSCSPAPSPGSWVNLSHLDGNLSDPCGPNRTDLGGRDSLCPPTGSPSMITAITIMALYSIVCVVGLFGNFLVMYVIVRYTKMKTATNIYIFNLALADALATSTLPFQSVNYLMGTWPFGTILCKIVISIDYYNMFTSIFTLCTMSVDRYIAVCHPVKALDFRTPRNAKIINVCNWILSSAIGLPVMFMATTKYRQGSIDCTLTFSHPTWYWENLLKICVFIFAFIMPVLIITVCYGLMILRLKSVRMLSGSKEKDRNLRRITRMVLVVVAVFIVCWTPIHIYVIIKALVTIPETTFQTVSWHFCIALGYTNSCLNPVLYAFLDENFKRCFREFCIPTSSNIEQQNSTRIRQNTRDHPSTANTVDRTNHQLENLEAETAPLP
Procedure, shortened: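 CHO-hMOR membranes (10 μg/ml) on WGA SPA beads, preincubated 45 min at 25 °C, then incubated with 0.5 nM [35S]GTPγS in HEPES pH 7.6, 5 mM MgCl2, 100 mM NaCl, 1 mM DTT, 1 mM EDTA. Non-specific binding with 10 μM unlabeled GTPγS; agonist EC50 from concentration-response, antagonism as inhibition of 1 μM SNC80-stimulated binding.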

[2] = target: T2, mu opioid receptor (Rattus norvegicus, UniProt P33535); assay: Rat Brain Mu Opioid Receptor Binding Assay (and Version 2a, [3H]DAMGO); details: rat forebrain membranes, margin of error 10-20%, read-out: r Ki μ
T2 construct: from tissue; host or cells: forebrain of male Wistar rats
T2 sequence (P33535 whole entry): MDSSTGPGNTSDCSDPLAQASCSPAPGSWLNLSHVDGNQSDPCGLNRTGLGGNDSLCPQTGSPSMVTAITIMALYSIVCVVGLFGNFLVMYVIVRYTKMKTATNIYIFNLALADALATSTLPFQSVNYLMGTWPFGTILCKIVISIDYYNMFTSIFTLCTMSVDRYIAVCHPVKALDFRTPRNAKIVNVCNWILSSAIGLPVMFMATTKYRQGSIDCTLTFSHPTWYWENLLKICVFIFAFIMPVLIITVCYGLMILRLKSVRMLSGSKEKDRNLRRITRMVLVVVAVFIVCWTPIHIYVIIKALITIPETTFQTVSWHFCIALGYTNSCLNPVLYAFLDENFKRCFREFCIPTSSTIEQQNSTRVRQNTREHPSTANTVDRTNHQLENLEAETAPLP
Procedure, shortened: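 Rat forebrain membranes from male Wistar rats in 50 mM Tris-HCl pH 7.4 with 5 mM MgCl2 incubated with 0.8 nM [3H]DAMGO for 2.5 h at 25° C., then filtered and counted. Data given as % inhibition of specific binding at single concentrations or as Ki from concentration series.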

[3] = target: T3, human mu opioid receptor (Homo sapiens, UniProt P35372); assay: Human Mu Opioid Receptor Binding Assay (CHO membranes, 3H-Damgo); details: read-out: hKi μ
T3 construct: purchased Perkin Elmer RBHOMM400UA; host or cells: Chinese Hamster Ovary cells (recombinant expression)
T3 sequence (P35372 whole entry): as the sequence (P35372 whole entry) above
Procedure, shortened: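 Membranes from CHO cells expressing human mu opioid receptor, 300 μg/mL, in 50 mM Tris pH 7.5, 5 mM MgCl2. Incubated with compound and ³H-Damgo (3.6 nM before mixing) for 2 h at room temperature, filtered, counted by scintillation. Nonspecific binding with 1 μM unlabelled Damgo.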

| Compound | MOR GTP binding assay_v2 (% I) [1] [%] | EC50 [1] [nM] | Ki [2] | Ki [3] | MOR GTP binding assay_v1 (% I) [1] [%] | MOR GTP assay_v1 % of Basal [1] [%] |
| --- | --- | --- | --- | --- | --- | --- |
| COc1ccc(CN(Cc2nc(-c3ccccc3)c[nH]2)C(=O)[C@@H](N)Cc2ccc(C(N)=O)cc2)cc1C(=O)O [Cpd 5] | 7.87 | 71 | 1.19 nM | 3.9 nM |  |  |
| COc1ccc(CN(C(=O)[C@@H](N)Cc2ccc(C(N)=O)cc2)[C@@H](C)c2nc(-c3ccccc3)c[nH]2)cc1C(=O)O [Cpd 4] |  |  | 2.41 nM | 5.5 nM |  |  |
| Cc1cc(O)cc(C)c1C[C@H](N)C(=O)N(C)[C@@H](C)c1nc(-c2ccccc2)c[nH]1 [Cpd 207] |  |  | 0.05 nM and 0.08 nM and 0.1 nM |  |  |  |
| Cc1cc(O)cc(C)c1C[C@H](N)C(=O)N(Cc1nc(-c2ccccc2)c(C)[nH]1)C(C)C [Cpd 166] |  |  | 0.03 nM and 0.07 nM | 0.39 nM and 0.5 nM | 1.00 |  |
| Cc1cc(C(N)=O)cc(C)c1C[C@H](N)C(=O)N(Cc1ccccc1)[C@@H](C)c1nc(-c2ccccc2)c[nH]1 [Cpd 114] |  |  | 0.26 nM | 1.39 nM | 13.20 | 717.59 |
| CCN(C(=O)[C@@H](N)Cc1c(C)cc(O)cc1C)[C@@H](C)c1nc(-c2ccccc2)c[nH]1 [Cpd 216] |  |  | 0.04 nM |  | 1.00 | 666.00 |
| COc1ccc(CN(C(=O)[C@@H](N)Cc2ccc(O)cc2)[C@@H](C)c2nc(-c3ccccc3)c[nH]2)cc1C(=O)O [Cpd 261] | 5.88 | 17 | 0.79 nM | 2.58 nM and 1.3 nM |  |  |
| COC(=O)c1ccc(CN(C(=O)[C@@H](N)Cc2ccc(C(N)=O)cc2)[C@@H](C)c2nc(-c3ccccc3)c[nH]2)o1 [Cpd 303] | 1.00 | 30 | 3.87 nM | 3.8 nM |  |  |
| COc1ccc(CN(C(=O)[C@@H](N)Cc2c(C)cc(C(N)=O)cc2C)[C@@H](C)c2nc(-c3ccc(I)cc3)c[nH]2)cc1C(=O)O [Cpd 289] |  |  | 0.25 nM | 2.2 nM |  |  |
| Cc1cc(O)cc(C)c1C[C@H](N)C(=O)N(Cc1nc(-c2ccccc2)c[nH]1)CC1CC1 [Cpd 192] |  |  | 0.09 nM | 0.62 nM | 30.00 | 383.00 |
| Cc1cc(C(N)=O)cc(C)c1C[C@H](N)C(=O)N(Cc1cccc(C(=O)O)c1)[C@@H](C)c1nc(-c2ccccc2)c[nH]1 [Cpd 227] | 36.00 | 60.8 | 0.96 nM | 1.92 nM |  |  |
| Cc1cc(O)cc(C)c1C[C@H](N)C(=O)N(Cc1ccccc1)[C@@H](C)c1nc(-c2ccccc2)c[nH]1 [Cpd 218] |  |  | 0.03 nM | 3.92 nM | 1.00 | 599.00 |
| C[C@H](c1nc(-c2ccccc2)c[nH]1)N(C)C(=O)[C@@H](N)Cc1ccc(C(N)=O)cc1 [Cpd 203] |  |  | 29.1 nM | 13.7 nM | 20.00 | 331.00 |
| COc1ccc(CN(C(=O)[C@@H](N)Cc2c(C)cc(O)cc2C)[C@@H](C)c2nc(-c3ccccc3)c[nH]2)cc1C(=O)O [Cpd 260] | 2.89 | 1.5 | 0.24 nM | 0.58 nM |  |  |
| CC(C)N(Cc1nc(-c2ccccc2)c[nH]1)C(=O)[C@@H](N)Cc1ccc(O)cc1 [Cpd 195] |  |  | 9.29 nM | 9.8 nM | 34.00 | 378.00 |
| Cc1cc(C(N)=O)cc(C)c1C[C@H](N)C(=O)N(Cc1ccc(C(=O)O)o1)[C@@H](C)c1nc(-c2ccccc2)c[nH]1 [Cpd 256] | 29.40 | 13 | 7.08 nM | 2 nM |  |  |
| Cc1cc(O)cc(C)c1C[C@H](N)C(=O)N(C)[C@@H](C)c1nc(Cc2ccccc2)c[nH]1 [Cpd 205] |  |  | 0.14 nM |  | 1.00 | 566.00 |

| Compound | MOR GTP binding assay_v2 (% I) [1] [%] | EC50 [1] [nM] | Ki [2] | Ki [3] | MOR GTP binding assay_v1 (% I) [1] [%] | MOR GTP assay_v1 % of Basal [1] [%] |
| --- | --- | --- | --- | --- | --- | --- |
| Cc1cc(O)cc(C)c1C[C@H](N)C(=O)N(Cc1nc(-c2ccc(F)cc2)c(C)[nH]1)C(C)C [Cpd 163] |  |  | 0.03 nM | 0.67 nM | 1.00 |  |
| COc1ccc(CN(C(=O)[C@@H](N)Cc2c(C)cc(C(N)=O)cc2C)[C@@H](C)c2nc(-c3ccccc3)c[nH]2)cc1OC [Cpd 75] |  |  | 0.51 nM | 2.6 nM |  |  |
| Cc1cc(O)cc(C)c1C[C@H](N)C(=O)N(C)[C@H](C)c1nc(-c2ccccc2)c[nH]1 [Cpd 206] |  |  | 0.2 nM |  | 1.00 | 446.00 |
| Cc1cc(O)cc(C)c1C[C@H](N)C(=O)N(Cc1cccc(C(=O)O)c1)[C@@H](C)c1nc(-c2ccccc2)c[nH]1 [Cpd 48] | 24.53 | 2.2 | 0.14 nM | 0.4 nM |  |  |
| CCN(C(=O)[C@@H](N)Cc1ccc(O)cc1)[C@H](C)c1nc(-c2ccccc2)c[nH]1 [Cpd 214] |  |  | 44 nM | 29 nM | 3.00 | 295.00 |
| C[C@H](c1nc(-c2ccccc2)c[nH]1)N(Cc1ccccc1)C(=O)[C@@H](N)Cc1ccc(O)cc1 [Cpd 221] |  |  | 0.36 nM | 0.42 nM | 13.00 | 427.00 |
| CCN(C(=O)[C@@H](N)Cc1c(C)cc(O)cc1C)[C@H](C)c1nc(-c2ccccc2)c[nH]1 [Cpd 217] |  |  | 1.08 nM |  | 1.00 | 599.00 |
| Cc1cc(O)cc(C)c1C[C@H](N)C(=O)N(Cc1ccnc2ccccc12)[C@@H](C)c1nc(-c2ccccc2)c[nH]1 [Cpd 246] | 21.30 | 4.5 | 0.15 nM | 5.63 nM |  |  |
| Cc1cc(C(N)=O)cc(C)c1C[C@H](N)C(=O)N(Cc1ccc(C(=O)O)cc1)[C@@H](C)c1nc(-c2ccccc2)c[nH]1 [Cpd 50] |  |  | 1.68 nM | 1.4 nM |  |  |
| CCN(C(=O)[C@@H](N)Cc1ccc(O)cc1)[C@@H](C)c1nc(-c2ccccc2)c[nH]1 [Cpd 215] |  |  | 0.43 nM | 1.5 nM | 1.00 | 606.00 |
| COC(=O)c1ccc(CN(C(=O)[C@@H](N)Cc2c(C)cc(C(N)=O)cc2C)[C@@H](C)c2nc(-c3ccccc3)c[nH]2)o1 [Cpd 257] | 10.96 | 3.9 | 1.22 nM | 3.4 nM |  |  |
| Cc1cc(O)cc(C)c1C[C@H](N)C(=O)N(Cc1nc(-c2ccccc2)c[nH]1)C(C)C [Cpd 194] |  |  | 0.06 nM | 0.13 nM | 1.00 | 558.00 |
| COc1ccc(CN(C(=O)[C@@H](N)Cc2c(C)cc(C(N)=O)cc2C)[C@@H](C)c2nc(-c3ccccc3)c[nH]2)cc1-c1nnn[nH]1 [Cpd 8] | 13.95 | 1.2 | 0.51 nM | 2.5 nM and 4.4 nM |  |  |
| Cc1ccccc1-c1nc(CN(C(=O)[C@@H](N)Cc2c(C)cc(O)cc2C)C(C)C)[nH]c1C [Cpd 165] |  |  | 0.07 nM | 0.45 nM | 1.00 |  |
| Cc1cc(C(N)=O)cc(C)c1C[C@H](N)C(=O)N(Cc1cccc(-c2nnn[nH]2)c1)[C@@H](C)c1nc(-c2ccccc2)c[nH]1 [Cpd 242] |  |  | 0.59 nM | 2.35 nM |  |  |
| Cc1cc(O)cc(C)c1C[C@H](N)C(=O)N(Cc1nc(-c2ccccc2)c[nH]1)C1CCCCC1 [Cpd 190] |  |  | 2.61 nM |  | 70.00 |  |
